US20110165267A1, “AGENTS FOR TREATING AND/OR AVOIDING FIRE BLIGHT” (LANXESS DISTRIBUTION GMBH, priority 2008, published 2011)
Several values for one entry are separate records, joined by “and”; a condition that tells them apart may be missing. Identical values can stand only once.

Test system: Erwinia amylovora 385
Experiment: Reduction of the Erwinia amylovora population on apple blossom
Format: in vivo
Details: 0.06% streptomycin; apple blossom cv. Gala; 10^6 bacteria/ml; sprayed one hour after inoculation; 6 days at 20 to 23° C.; tests 4 to 6
Protocol: 2. Testing the Reduction of the Erwinia amylovora Population on Apple Blossom
Test plants: Apple blossom cv. Gala
Apple blossom cv. Gala were used in the following tests. The trees had not been treated with plant protection compositions. The flowers were placed by the petiole into a 10% strength sucrose solution and incubated in a humid chamber. 24 flowers were employed per treatment and repletition, and the test was repeated in each case three times.
Pathogen: Erwinia amylovora 385 was grown on agar plates. The apple blossom was inoculated with a suspension of 10^6 bacteria/ml.
Plant Treatment Composition:
1 part by weight of a solid formulation comprising
63.75% by weight of calcium formate
18.75% by weight of citric acid
16.73% by weight of calcium chloride
0.77% by weight of wetting agent and anti-dust agent were dissolved in 50 parts by weight (P 2%) of tap water and the solution was used for the following treatment. The pH was 4.1.
To carry out the treatments, the blossom was sprayed with the respective solution one hour after the inoculation, the chamber was sealed, and the contents were incubated for 6 days at 20 to 23° C.
(1-3) Water as the control
(4-6) 0.06% streptomycin (for comparison)

With `[H]/N=C(/N)N[C@H]1[C@H](O)[C@@H](O)[C@H](O[C@@H]2O[C@@H](C)[C@](O)(C=O)[C@H]2O[C@@H]2O[C@@H](CO)[C@H](O)[C@@H](O)[C@@H]2NC)[C@@H](N/C(N)=N\[H])[C@@H]1O` [streptomycin] the Efficacy was 84.6% and 89.5% and 95.5%.
